Legend:
[1] = rat, in vivo
[2] = in vivo; conditions: rat, inhaled or intranasal, 6 mg/kg

| SMILES | presence in the brain / CNS localization [1] | presence in the serum [1] | level at time molar at 8 h [2] [nM] |
| --- | --- | --- | --- |
| CC[C@H](C)[C@H](NC(=O)[C@H](C)NC(=O)[C@H](CC(N)=O)NC(=O)CNC(=O)[C@H](CC(C)C)NC(=O)[C@H](CC(N)=O)NC(=O)[C@@H](NC(=O)CNC(=O)[C@@H](NC(=O)[C@H](CC(=O)O)NC(=O)[C@H](CC(C)C)NC(=O)[C@H](CCCNC(=N)N)NC(=O)[C@H](CCC(=O)O)NC(=O)[C@H](CC(C)C)NC(=O)[C@H](CO)NC(=O)[C@@H](NC(=O)[C@@H]1CCCN1C(=O)[C@@H]1CCCN1C(C)=O)[C@@H](C)CC)C(C)C)[C@@H](C)O)C(=O)N[C@@H](C)C(=O)N[C@@H](CCCCN)C(=O)N[C@@H](CC(C)C)C(=O)N[C@@H](CCC(=O)O)C(=O)N[C@@H](CC(=O)O)C(=O)N[C@@H](C)C(=O)N[C@@H](CCCCN)C(=O)N[C@@H](CCC(=O)O)C(=O)N[C@@H](CC(C)C)C(=O)N[C@@H](CC(C)C)C(=O)N[C@@H](CCC(=O)O)C(=O)N[C@@H](CO)C(=O)N[C@@H](CO)C(=O)N[C@@H](CC(=O)O)C(=O)N[C@@H](CCC(N)=O)C(=O)N[C@H](C(=O)N[C@@H](CC(C)C)C(=O)N[C@@H](CCCNC(=N)N)C(=O)NCC(=O)N[C@@H](CO)C(=O)NCC(=O)N[C@@H](CO)C(=O)NCC(=O)N[C@@H](CSC1=CC(=O)N(CCCC(=O)NCCOCCOCCOCCOCCC(=O)NCCN(CCNC(=O)CCOCCOCCOCCOCCNC(=O)CCCN2C(=O)C=C(SC[C@H](NC(=O)CNC(=O)[C@H](CO)NC(=O)CNC(=O)[C@H](CO)NC(=O)CNC(=O)[C@H](CCCNC(=N)N)NC(=O)[C@H](CC(C)C)NC(=O)[C@@H](NC(=O)[C@H](CCC(N)=O)NC(=O)[C@H](CC(=O)O)NC(=O)[C@H](CO)NC(=O)[C@H](CO)NC(=O)[C@H](CCC(=O)O)NC(=O)[C@H](CC(C)C)NC(=O)[C@H](CC(C)C)NC(=O)[C@H](CCC(=O)O)NC(=O)[C@H](CCCCN)NC(=O)[C@H](C)NC(=O)[C@H](CC(=O)O)NC(=O)[C@H](CCC(=O)O)NC(=O)[C@H](CC(C)C)NC(=O)[C@H](CCCCN)NC(=O)[C@H](C)NC(=O)[C@@H](NC(=O)[C@H](C)NC(=O)[C@H](CC(N)=O)NC(=O)CNC(=O)[C@H](CC(C)C)NC(=O)[C@H](CC(N)=O)NC(=O)[C@@H](NC(=O)CNC(=O)[C@@H](NC(=O)[C@H](CC(=O)O)NC(=O)[C@H](CC(C)C)NC(=O)[C@H](CCCNC(=N)N)NC(=O)[C@H](CCC(=O)O)NC(=O)[C@H](CC(C)C)NC(=O)[C@H](CO)NC(=O)[C@@H](NC(=O)[C@@H]3CCCN3C(=O)[C@@H]3CCCN3C(C)=O)[C@@H](C)CC)C(C)C)[C@@H](C)O)[C@@H](C)CC)[C@@H](C)CC)C(N)=O)C2=O)CCOc2c(C)c(C)c3c(c2C)CC[C@](C)(CCC[C@@H](C)CCC[C@@H](C)CCCC(C)C)O3)C1=O)C(N)=O)[C@@H](C)CC [HRC4-tocopherol] | no CNS localization | minimal presence in the serum | ~2000 |
| CC[C@H](C)[C@H](NC(=O)[C@H](C)NC(=O)[C@H](CC(N)=O)NC(=O)CNC(=O)[C@H](CC(C)C)NC(=O)[C@H](CC(N)=O)NC(=O)[C@@H](NC(=O)CNC(=O)[C@@H](NC(=O)[C@H](CC(=O)O)NC(=O)[C@H](CC(C)C)NC(=O)[C@H](CCCNC(=N)N)NC(=O)[C@H](CCC(=O)O)NC(=O)[C@H](CC(C)C)NC(=O)[C@H](CO)NC(=O)[C@@H](NC(=O)[C@@H]1CCCN1C(=O)[C@@H]1CCCN1C(C)=O)[C@@H](C)CC)C(C)C)[C@@H](C)O)C(=O)N[C@@H](C)C(=O)N[C@@H](CCCCN)C(=O)N[C@@H](CC(C)C)C(=O)N[C@@H](CCC(=O)O)C(=O)N[C@@H](CC(=O)O)C(=O)N[C@@H](C)C(=O)N[C@@H](CCCCN)C(=O)N[C@@H](CCC(=O)O)C(=O)N[C@@H](CC(C)C)C(=O)N[C@@H](CC(C)C)C(=O)N[C@@H](CCC(=O)O)C(=O)N[C@@H](CO)C(=O)N[C@@H](CO)C(=O)N[C@@H](CC(=O)O)C(=O)N[C@@H](CCC(N)=O)C(=O)N[C@H](C(=O)N[C@@H](CC(C)C)C(=O)N[C@@H](CCCNC(=N)N)C(=O)NCC(=O)N[C@@H](CO)C(=O)NCC(=O)N[C@@H](CO)C(=O)NCC(=O)N[C@@H](CSC1=CC(=O)N(CCCC(=O)NCCOCCOCCOCCOCCC(=O)NCCN(CCNC(=O)CCOCCOCCOCCOCCNC(=O)CCCN2C(=O)C=C(SC[C@H](NC(=O)CNC(=O)[C@H](CO)NC(=O)CNC(=O)[C@H](CO)NC(=O)CNC(=O)[C@H](CCCNC(=N)N)NC(=O)[C@H](CC(C)C)NC(=O)[C@@H](NC(=O)[C@H](CCC(N)=O)NC(=O)[C@H](CC(=O)O)NC(=O)[C@H](CO)NC(=O)[C@H](CO)NC(=O)[C@H](CCC(=O)O)NC(=O)[C@H](CC(C)C)NC(=O)[C@H](CC(C)C)NC(=O)[C@H](CCC(=O)O)NC(=O)[C@H](CCCCN)NC(=O)[C@H](C)NC(=O)[C@H](CC(=O)O)NC(=O)[C@H](CCC(=O)O)NC(=O)[C@H](CC(C)C)NC(=O)[C@H](CCCCN)NC(=O)[C@H](C)NC(=O)[C@@H](NC(=O)[C@H](C)NC(=O)[C@H](CC(N)=O)NC(=O)CNC(=O)[C@H](CC(C)C)NC(=O)[C@H](CC(N)=O)NC(=O)[C@@H](NC(=O)CNC(=O)[C@@H](NC(=O)[C@H](CC(=O)O)NC(=O)[C@H](CC(C)C)NC(=O)[C@H](CCCNC(=N)N)NC(=O)[C@H](CCC(=O)O)NC(=O)[C@H](CC(C)C)NC(=O)[C@H](CO)NC(=O)[C@@H](NC(=O)[C@@H]3CCCN3C(=O)[C@@H]3CCCN3C(C)=O)[C@@H](C)CC)C(C)C)[C@@H](C)O)[C@@H](C)CC)[C@@H](C)CC)C(N)=O)C2=O)CCOC2CCC3(C)C(=CCC4C3CCC3(C)C(C(C)CCCC(C)C)CCC43)C2)C1=O)C(N)=O)[C@@H](C)CC (stereo partly drawn) [MV HRC4] | a small fraction of the administered peptides was present | a small fraction of the administered peptides was present | ~400 |
